# Measured values taken from PubChem BioAssay AID2060897 (Molecular Pharmacology Branch, DTP, NCI, 2025).
# Tested on: 966289-007-R4-J1-PDC complex spheroid viability
# Assay: Anticancer human tumor 966289-007-R4-J1-PDC patient-derived pancreatic adenocarcinoma cell line growth inhibition [RAS]
# Details: for viability, T/C: stronger effect = lower value
# Outline: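 Tumour cells grown as complex spheroids with HUVEC endothelial cells and mesenchymal stem cells, treated with RAS pathway inhibitor combinations. Each agent spans half-log steps from near clinical Cmax, or 10 microM where Cmax is unknown.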
# 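Also: spheroids exposed to agents for one week before readout.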
# 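For viability, T/C in this document: percent viability relative to DMSO vehicle control wells as 100%.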
compound,measurement,setting,value
Cc1nc(N2CCC3(CC2)COC(C)C3N)c(CO)nc1Sc1ccnc(N)c1Cl (configuration not stated) + CCn1c(-c2cc(N3CCN(C)CC3)cnc2C(C)OC)c2c3cc(ccc31)-c1csc(n1)CC(NC(=O)C1CC1C)C(=O)N1CCCC(N1)C(=O)OCC(C)(C)C2,IC50,"curve of first compound, second compound 0.000949 µM",> 10000 nM
same,IC50,"curve of first compound, second compound 0.003 µM",> 10000 nM
same,IC50,"curve of first compound, second compound 0.00949 µM",> 10000 nM
same,IC50,"curve of first compound, second compound 0.03 µM",> 10000 nM
same,IC50,"curve of first compound, second compound 0.0949 µM",> 10000 nM
same,IC50,"curve of first compound, second compound 0.3 µM",> 10000 nM
same,"viability, T/C","second compound 0.000949 µM, first compound 0.0316 µM",130%
same,"viability, T/C","second compound 0.000949 µM, first compound 0.1 µM",121%
same,"viability, T/C","second compound 0.000949 µM, first compound 0.316 µM",107%
same,"viability, T/C","second compound 0.000949 µM, first compound 1 µM",85.4%
same,"viability, T/C","second compound 0.000949 µM, first compound 3.16 µM",93.8%
same,"viability, T/C","second compound 0.000949 µM, first compound 10 µM",115%
same,"viability, T/C","second compound 0.003 µM, first compound 0.0316 µM",114%
same,"viability, T/C","second compound 0.003 µM, first compound 0.1 µM",92.9%
same,"viability, T/C","second compound 0.003 µM, first compound 0.316 µM",94.1%
same,"viability, T/C","second compound 0.003 µM, first compound 1 µM",86.7%
same,"viability, T/C","second compound 0.003 µM, first compound 3.16 µM",81.5%
same,"viability, T/C","second compound 0.003 µM, first compound 10 µM",97.1%
same,"viability, T/C","second compound 0.00949 µM, first compound 0.0316 µM",106%
same,"viability, T/C","second compound 0.00949 µM, first compound 0.1 µM",99.2%
same,"viability, T/C","second compound 0.00949 µM, first compound 0.316 µM",84.4%
same,"viability, T/C","second compound 0.00949 µM, first compound 1 µM",122%
same,"viability, T/C","second compound 0.00949 µM, first compound 3.16 µM",86.1%
same,"viability, T/C","second compound 0.00949 µM, first compound 10 µM",97.7%
same,"viability, T/C","second compound 0.03 µM, first compound 0.0316 µM",87.4%
same,"viability, T/C","second compound 0.03 µM, first compound 0.1 µM",69.8%
same,"viability, T/C","second compound 0.03 µM, first compound 0.316 µM",102%
same,"viability, T/C","second compound 0.03 µM, first compound 1 µM",107%
same,"viability, T/C","second compound 0.03 µM, first compound 3.16 µM",79.9%
same,"viability, T/C","second compound 0.03 µM, first compound 10 µM",102%
same,"viability, T/C","second compound 0.0949 µM, first compound 0.0316 µM",75.6%
same,"viability, T/C","second compound 0.0949 µM, first compound 0.1 µM",131%
same,"viability, T/C","second compound 0.0949 µM, first compound 0.316 µM",86.9%
same,"viability, T/C","second compound 0.0949 µM, first compound 1 µM",119%
same,"viability, T/C","second compound 0.0949 µM, first compound 3.16 µM",113%
same,"viability, T/C","second compound 0.0949 µM, first compound 10 µM",117%
same,"viability, T/C","second compound 0.3 µM, first compound 0.0316 µM",92.3%
same,"viability, T/C","second compound 0.3 µM, first compound 0.1 µM",88.6%
same,"viability, T/C","second compound 0.3 µM, first compound 0.316 µM",110%
same,"viability, T/C","second compound 0.3 µM, first compound 1 µM",108%
same,"viability, T/C","second compound 0.3 µM, first compound 3.16 µM",111%
same,"viability, T/C","second compound 0.3 µM, first compound 10 µM",103%
CC(C)n1nc(-c2ccc3oc(N)nc3c2)c2c(N)ncnc21 + C#Cc1c(F)ccc2cc(O)cc(-c3ncc4c(N5CC6CCC(C5)N6)nc(OCC56CCCN5CC(F)C6)nc4c3F)c12,IC50,"curve of first compound, second compound 0.0316 µM",46.5 nM
same,IC50,"curve of first compound, second compound 0.1 µM",49.9 nM
same,IC50,"curve of first compound, second compound 0.316 µM",38.8 nM
same,IC50,"curve of first compound, second compound 1 µM",42.6 nM
same,IC50,"curve of first compound, second compound 3.16 µM",41.5 nM
same,IC50,"curve of first compound, second compound 10 µM",23.3 nM
same,"viability, T/C","second compound 0.0316 µM, first compound 0.000316 µM",99.2%
same,"viability, T/C","second compound 0.0316 µM, first compound 0.001 µM",96.8%
same,"viability, T/C","second compound 0.0316 µM, first compound 0.00316 µM",91.8%
same,"viability, T/C","second compound 0.0316 µM, first compound 0.01 µM",106%
same,"viability, T/C","second compound 0.0316 µM, first compound 0.0316 µM",61.8%
same,"viability, T/C","second compound 0.0316 µM, first compound 0.1 µM",26.6%
same,"viability, T/C","second compound 0.1 µM, first compound 0.000316 µM",104%
same,"viability, T/C","second compound 0.1 µM, first compound 0.001 µM",99.4%
same,"viability, T/C","second compound 0.1 µM, first compound 0.00316 µM",104%
same,"viability, T/C","second compound 0.1 µM, first compound 0.01 µM",110%
same,"viability, T/C","second compound 0.1 µM, first compound 0.0316 µM",67%
same,"viability, T/C","second compound 0.1 µM, first compound 0.1 µM",24.1%
same,"viability, T/C","second compound 0.316 µM, first compound 0.000316 µM",111%
same,"viability, T/C","second compound 0.316 µM, first compound 0.001 µM",103%
same,"viability, T/C","second compound 0.316 µM, first compound 0.00316 µM",114%
same,"viability, T/C","second compound 0.316 µM, first compound 0.01 µM",109%
same,"viability, T/C","second compound 0.316 µM, first compound 0.0316 µM",56.3%
same,"viability, T/C","second compound 0.316 µM, first compound 0.1 µM",21%
same,"viability, T/C","second compound 1 µM, first compound 0.000316 µM",108%
same,"viability, T/C","second compound 1 µM, first compound 0.001 µM",118%
same,"viability, T/C","second compound 1 µM, first compound 0.00316 µM",119%
same,"viability, T/C","second compound 1 µM, first compound 0.01 µM",126%
same,"viability, T/C","second compound 1 µM, first compound 0.0316 µM",59.7%
same,"viability, T/C","second compound 1 µM, first compound 0.1 µM",22%
same,"viability, T/C","second compound 3.16 µM, first compound 0.000316 µM",108%
same,"viability, T/C","second compound 3.16 µM, first compound 0.001 µM",113%
same,"viability, T/C","second compound 3.16 µM, first compound 0.00316 µM",125%
same,"viability, T/C","second compound 3.16 µM, first compound 0.01 µM",105%
same,"viability, T/C","second compound 3.16 µM, first compound 0.0316 µM",58.7%
same,"viability, T/C","second compound 3.16 µM, first compound 0.1 µM",22.4%
same,"viability, T/C","second compound 10 µM, first compound 0.000316 µM",97.4%
same,"viability, T/C","second compound 10 µM, first compound 0.001 µM",94.1%
same,"viability, T/C","second compound 10 µM, first compound 0.00316 µM",126%
same,"viability, T/C","second compound 10 µM, first compound 0.01 µM",96.8%
same,"viability, T/C","second compound 10 µM, first compound 0.0316 µM",33.2%
same,"viability, T/C","second compound 10 µM, first compound 0.1 µM",17%
C#Cc1c(F)ccc2cc(O)cc(-c3ncc4c(N5CC6CCC(C5)N6)nc(OCC56CCCN5CC(F)C6)nc4c3F)c12 (configuration not stated),"viability, T/C",compound 0.316 µM,114% [middle of 8 runs]
same,"viability, T/C",compound 3.16 µM,94.4% [middle of 8 runs]
same,IC50,"compound alone, run of 06/10/2024",> 10000 nM
